Laboratory results as given in patent US8329712B2, “Heterocyclic antiviral compounds” (Roche Palo Alto LLC, priority 2010, dated 2012).

Experiments:
[1] = target: T1, HCV polymerase (NS5B570n-Con1) (Hepatitis C virus genotype 1b, UniProt Q9WMX2); test: HCV NS5B RNA polymerase activity assay (incorporation of radiolabeled UTP); assay type: biochemical, HCV Con1 strain
T1 construct: contains a 21 amino acid deletion at the C-terminus relative to the full-length HCV polymerase; 6-histidine (N); made in house; host or cells: E. coli strain BL21(DE) pLysS, plasmid pET 17b
Method: The enzymatic activity of HCV polymerase (NS5B570n-Con1) was measured as the incorporation of radiolabeled nucleotide monophosphates into acid insoluble RNA products. Unincorporated radiolabeled substrate was removed by filtration and scintillant was added to the washed and dried filter plate containing radiolabeled RNA product. The amount of RNA product generated by NS5B570-Con1 at the end of the reaction was directly proportional to the amount of light emitted by the scintillant.
The N-terminal 6-histidine tagged HCV polymerase, derived from HCV Con1 strain, genotype 1b (NS5B570n-Con1) contains a 21 amino acid deletion at the C-terminus relative to the full-length HCV polymerase and was purified from E. coli strain BL21(DE) pLysS. The construct, containing the coding sequence of HCV NS5B Con1 (GenBank accession number AJ242654) was inserted into the plasmid construct pET 17b, downstream of a T7 promoter expression cassette and transformed into E. coli. A single colony was grown overnight as a starter culture and later used inoculate 10 L of LB media supplemented with 100 μg/mL ampicillin at 37° C. Protein expression was induced by the addition of 0.25 mM isopropyl-β-D-thiogalactopyranoside (IPTG) when optical density at […] of the culture was between 0.6 and 0.8 and cells were harvested after 16 to 18 h at 30° C. NS5B570n-Con1 was purified to homogeneity using a three-step protocol including subsequent column chromatography on Ni-NTA, SP-Sepharose HP and Superdex 75 resins.
Each 50 μL enzymatic reaction contained 20 nM RNA template derived from the complementary sequence of the Internal Ribosome Entry Site (cIRES), 20 nM NS5B570n-Con1 enzyme, 0.5 μCi of tritiated UTP (Perkin Elmer catalog no. TRK-412; specific activity: 30 to 60 Ci/mmol; stock solution concentration from 7.5×10^−5 M to 20.6×10^−6 M), 1 μM each ATP, CTP, and GTP, 40 mM Tris-HCl pH 8.0, 40 mM NaCl, 4 mM DTT (dithiothreitol), 4 mM MgC12, and 5 μL of compound serial diluted in DMSO. Reaction mixtures were assembled in 96-well filter plates (cat #MADVNOB, Millipore Co.) and incubated for 2 h at 30° C. Reactions were stopped by addition of 10% final (v/v) trichloroacetic acid and incubated for 40 min at 4° C. Reactions were filtered, washed with 8 reaction volumes of 10% (v/v) trichloroacetic acetic acid, 4 reaction volumes of 70% (v/v) ethanol, air dried, and 25 μL of scintillant (Microscint 20, Perkin-Elmer) was added to each reaction well.
The amount of light emitted from the scintillant was converted to counts per minute (CPM) on a Topcount® plate reader (Perkin-Elmer, Energy Range: Low, Efficiency Mode Normal, Count Time: 1 min, Background Subtract: none, Cross talk reduction: Off).
Data was analyzed in Excel® (Microsoft) and ActivityBase® (Idbs®). The reaction in the absence of enzyme was used to determine the background signal, which was subtracted from the enzymatic reactions. Positive control reactions were performed in the absence of compound, from which the background corrected activity was set as 100% polymerase activity. All data was expressed as a percentage of the positive control. The compound concentration at which the enzyme-catalyzed rate of RNA synthesis was reduced by 50% (IC50) was calculated by fitting equation (i) to the data where“Y” […]

[2] = tested on: HCV replicon cells (2209-23), genotype 1b replicon in Huh7 cells; test: HCV replicon assay (Renilla luciferase reporter); assay type: cell-based, HCV genotype 1b; conditions: Hepatitis C virus, Huh-7, 72 h; 2209-23 cells, three days incubation
in vitro = conditions: human
HCV = conditions: cited from earlier work

## CC(C)(C)c1nc(-c2ccc(O)[nH]c2=O)c2ccc(N3CC[C@H](CNS(C)(=O)=O)C3)cc2n1 [Compound I-2]
[1]
  IC50: 3.5 nM
other
  melting point: 205.8 to 207.9 °C

## CC(C)(C)c1nc(-n2ccc(=O)[nH]c2=O)c2ccc(-c3ccc(NS(C)(=O)=O)cc3)cc2n1 [Compound I-3, N-{4-[2-tert-Butyl-4-(2,4-dioxo-3,4-dihydro-2H-pyrimidin-1-yl)-quinazolin-7-yl]-phenyl}-methanesulfonamide]
[1]
  IC50: < 0.1 nM
other
  melting point: 186 to 190 °C
[2]
  IC50: 17 nM
In vitro
  CC50 at 3 days: 44 µM

## CC(C)(C)c1nc(-c2ccc(O)[nH]c2=O)c2ccc(-c3ccc(NS(C)(=O)=O)cc3)cc2n1 [Compound I-4, N-{4-[2-tert-Butyl-4-(6-hydroxy-2-oxo-1,2-dihydro-pyridin-3-yl)-quinazolin-7-yl]-phenyl}-methanesulfonamide]
[1]
  IC50: 2.4 nM

## CC(C)(C)c1nc(-n2ccc(=O)[nH]c2=O)c2ncc(-c3ccc(NS(C)(=O)=O)cc3)cc2n1 [Compound I-5, N-{4-[2-tert-Butyl-4-(2,4-dioxo-3,4-dihydro-2H-pyrimidin-1-yl)-pyrido[3,2-d]pyrimidin-7-yl]-phenyl}-methanesulfonamide]
[1]
  IC50: 5.5 nM

## Cc1ccc(-c2nc(C(C)(C)C)nc3cc(-c4ccc(NS(C)(=O)=O)cc4)cnc23)c(=O)[nH]1 [Compound I-6]
[1]
  IC50: 9.7 nM

## NC(=O)c1ncn([C@@H]2O[C@H](CO)[C@@H](O)[C@H]2O)n1 [ribavirin, 1-((2R,3R,4S,5R)-3,4-Dihydroxy-5-hydroxymethyl-tetrahydro-furan-2-yl)-1H-[1,2,4]triazole-3-carboxylic acid amide]
HCV; monotherapy
  patients with serum amino transferase levels reduced to normal: 40%
HCV; sole treatment / monotherapy
  effect on serum levels of HCV-RNA: does not lower serum levels of HCV-RNA
